Data: patent publication US9890432B2, “PRDM14 and FAM19A4, molecular diagnostic markers for HPV-induced invasive cancers and their high-grade precursor lesions” (SELF-SCREEN B.V., priority 2013, dated 2018)
“Also recorded” adds a separate entry of the source.

Tested on: PRDM14 mRNA expression in SiHa cervical cancer cells
Assay: PRDM14 mRNA expression in SiHa cells after treatment with a DNA methylation inhibitor
Format: cell-based, human
Conditions: DAC at 0.2 μM and 5 μM, controls PBS and ethanol
Description: Treatment of SiHa cervical cancer cells was performed with the methylation inhibitor 2′-deoxy-5′azacytidine (5′-aza or DAC) at 0.2 μM and 5 μM concentration. Other treatments were PBS and ethanol (EtOH). All treatments were in duplicate. Controls are human reference RNA and a -RT control (without reverse transcriptase added to the cDNA reaction mixture).

Nc1ncn([C@H]2C[C@H](O)[C@@H](CO)O2)c(=O)n1 [DAC, 5-aza-2 deoxycytidine]
PRDM14 mRNA expression: upregulated; also recorded: upregulation
